Source: patent publication US6156790A, “C-10 carbon-substituted artemisinin-like trioxane compounds having antimalarial, antiproliferative and antitumor activities” (priority 1997, dated 2000)
“Also recorded” adds a separate entry of the source. Where two headings read alike, the source gives them in different places.

Columns and labels:
MOLT-4 = assay: cells; conditions: Homo sapiens
Experimental: The screening assay is performed on a 96-well microtitre plates.
Dose response curves, shown in the above mentioned Figures, are obtained by exposing various cancer cell lines to compounds having a known concentration ([log10 M]), as discussed in detail above, and then plotting the percentage growth of each cell line for each concentration. […] As discussed previously, the five drug dilutions routinely tested range from 10^-4 to 10^-9 molar.

SR = assay: cells; assay type: cell-based; conditions: Homo sapiens
A549/ATCC = assay: NCI 60 cell line screen (SRB), non-small cell lung cancer; assay type: cell-based; conditions: Homo sapiens
EKVX = assay: as above; assay type: cell-based; conditions: Homo sapiens
HOP-62 = assay: cells; assay type: cell-based; conditions: Homo sapiens, read-out: Log10 GI50 (converted)
HOP-92 = assay: NCI 60 cell line screen (SRB), non-small cell lung cancer; assay type: cell-based; conditions: Homo sapiens, read-out: Log10 GI50 (converted)
NCI-H226 = assay: as above; assay type: cell-based; conditions: Homo sapiens, read-out: Log10 GI50 (converted)
NCI-H23 = assay: as above; assay type: cell-based; conditions: Homo sapiens
NCI-H460 = assay: cells; assay type: cell-based; conditions: Homo sapiens, NCI-H460
HCT-116 = assay: cells; assay type: cell-based; conditions: Homo sapiens
HCT-15 = assay: cells; assay type: cell-based; conditions: Homo sapiens, HCT-15
HT29 = assay: cells; assay type: cell-based; conditions: Homo sapiens, HT-29, read-out: Log10 GI50 (converted)
KM12 = assay: cells; assay type: cell-based; conditions: Homo sapiens, read-out: Log10 TGI (converted)
SW-620 = assay: NCI 60 cell line screen (SRB), colon cancer; assay type: cell-based; conditions: Homo sapiens
SF-268 = assay: NCI 60 cell line screen (SRB), CNS cancer; assay type: cell-based; conditions: Homo sapiens, read-out: Log10 GI50 (converted)
SF-539 = assay: cells; assay type: cell-based; conditions: Homo sapiens
SNB-19 = assay: cells; assay type: cell-based; conditions: Homo sapiens, read-out: Log10 GI50 (converted)
SNB-75 = assay: cells; assay type: cell-based; conditions: Homo sapiens, read-out: Log10 GI50 (converted)
U251 = assay: cells; assay type: cell-based; conditions: Homo sapiens
SK-MEL-2 = assay: cells; assay type: cell-based; conditions: Homo sapiens
SK-MEL-28 = assay: cells; assay type: cell-based; conditions: Homo sapiens, read-out: Log10 GI50 (converted)
OVCAR-8 = assay: NCI 60 cell line screen (SRB), ovarian cancer; assay type: cell-based; conditions: Homo sapiens
A498 = assay: cells; assay type: cell-based; conditions: Homo sapiens, read-out: Log10 GI50 (converted)
TK-10 = assay: cells; assay type: cell-based; conditions: Homo sapiens
UO-31 = assay: NCI 60 cell line screen (SRB), renal cancer; assay type: cell-based; conditions: Homo sapiens
PC-3 = assay: cells; assay type: cell-based; conditions: Homo sapiens, PC-3
MCF7 = assay: cells; assay type: cell-based; conditions: Homo sapiens, MCF7; read-out: Log10 GI50 (converted)
MDA-MB231/ATCC = assay: cells; assay type: cell-based; conditions: Homo sapiens, MDA-MB-231, read-out: Log10 TGI (converted)
MDA-N = assay: cells; assay type: cell-based; conditions: Homo sapiens, read-out: Log10 GI50 (converted)
BT-549 = assay: cells; assay type: cell-based; conditions: Homo sapiens
T-47D = assay: cells; assay type: cell-based; conditions: Homo sapiens, T47D, T-47D
60 cell line panel = assay: NCI 60 cell line screen, whole panel; assay type: cell-based
IGROVI = assay: cells; conditions: 60 cell
ACHN = assay: cells; conditions: Homo sapiens
RXF 393 = assay: cells; conditions: Homo sapiens, RXF 393, read-out: Log10 GI50 (converted)
M14 = assay: NCI 60 cell line screen (SRB), melanoma; conditions: Homo sapiens, M14, read-out: Log10 GI50 (converted)
[1] = read-out: Log10 GI50 (converted)
[2] = read-out: Log10 TGI (converted)
[3] = read-out: Log10 LC50 (converted)

Work on `C[C@H]1[C@@H](F)O[C@@H]2O[C@@]3(C)CC[C@H]4[C@H](C)CC[C@@H]1[C@@]24OO3` [Compound VI, 10β-Fluorodeoxoartemisinin] yielded a GI50 (MOLT-4; MOLT-4, read-out: Log10 GI50 (converted)) of 0.427 µM, an IC (TGI) (MOLT-4; MOLT-4, read-out: Log10 TGI) of 36.3 µM and a GI50 (MOLT-4; MOLT-4, read-out: concentration for primary growth inhibition) of about 0.1 µM. It also gave a GI50 (SR; [1]) of 0.427 µM, an IC (TGI) (SR; [2]) of 13.8 µM and a GI50 (A549/ATCC; [1]) of 6.03 µM. The IC (TGI) (A549/ATCC; [2]) was 30.9 µM, the GI50 (EKVX; [1]) was 2.95 µM and the IC (TGI) (EKVX; [2]) was 89.1 µM. It also gave a GI50 (HOP-62) of 12.9 µM, a GI50 (HOP-92) of 2.95 µM and a GI50 (NCI-H226) of 5.75 µM. It also gave a GI50 (NCI-H23; [1]) of 0.631 µM, an IC (TGI) (NCI-H23; [2]) of 25.1 µM and a GI50 (NCI-H460; [1]) of 0.813 µM. The CC50 (NCI-H460; [3]) was 55 µM, the IC (TGI) (NCI-H460; [2]) was 19.1 µM and the GI50 (HCT-116; [1]) was 0.195 µM. For the same compound, the CC50 (HCT-116; [3]) was 42.7 µM, the GI50 (HCT-15; [1]) was 0.339 µM and the IC (TGI) (HCT-15; [2]) was 51.3 µM. For the same compound, the GI50 (HT29) was 0.407 µM, the IC (TGI) (KM12) was 26.9 µM and the GI50 (SW-620; [1]) was 0.398 µM. For the same compound, the CC50 (SW-620; [3]) was 63.1 µM, the IC (TGI) (SW-620; [2]) was 15.5 µM and the GI50 (SF-268) was 13.8 µM. For the same compound, the GI50 (SF-539; [1]) was 14.1 µM, the IC (TGI) (SF-539; [2]) was 40.7 µM and the GI50 (SNB-19) was 871 µM. The GI50 (SNB-75) was 14.5 µM, the GI50 (U251; U-251, read-out: Log10 GI50 (converted)) was 0.447 µM and the CC50 (U251; U-251, read-out: Log10 LC50 (converted)) was 42.7 µM. The IC (TGI) (U251; U-251, read-out: Log10 TGI (converted)) was 16.2 µM, the GI50 (SK-MEL-2; [1]) was 7.59 µM and the IC (TGI) (SK-MEL-2; [2]) was 77.6 µM. For the same compound, the GI50 (SK-MEL-28) was 17.8 µM, the GI50 (OVCAR-8; [1]) was 2.04 µM and the IC (TGI) (OVCAR-8; [2]) was 51.3 µM. It also gave a GI50 (A498) of 28.2 µM, a GI50 (TK-10; [1]) of 11 µM and an IC (TGI) (TK-10; [2]) of 37.2 µM. For the same compound, the GI50 (UO-31; [1]) was 1.1 µM, the CC50 (UO-31; [3]) was 25.1 µM and the IC (TGI) (UO-31; [2]) was 5.01 µM. The GI50 (PC-3; [1]) was 0.251 µM, the IC (TGI) (PC-3; [2]) was 46.8 µM and the GI50 (MCF7) was 0.525 µM. For the same compound, the IC (TGI) (MDA-MB231/ATCC) was 56.2 µM, the GI50 (MDA-N) was 1.15 µM and the GI50 (BT-549; [1]) was 0.759 µM. It also gave an IC (TGI) (BT-549; [2]) of 30.9 µM, a GI50 (T-47D; [1]) of 0.302 µM and an IC (TGI) (T-47D; [2]) of 47.9 µM. The IC (TGI) (60 cell line panel; 60 cell, mean over panel, read-out: Log10 TGI MG MID (converted)) was 41.7 µM, the CC50 (60 cell line panel; Homo sapiens, 60 cell, mean over panel, read-out: Log10 LC50 MG MID (converted)) was 93.3 µM and the “potency compared with artemisinin” value (60 cell line panel; Tables III, IV and V) was “more potent than artemisinin”. For the same compound, the “potency compared with paclitaxel” value (60 cell line panel; Tables III, IV and V) was “in most instances are as potent and in some instances more potent than paclitaxel; also recorded: equivalent to and in many instances higher in potency than paclitaxel”, the GI50 (IGROVI; [1]) was 1.23 µM and the IC (TGI) (IGROVI; read-out: Log10 TGI) was 18.2 µM. It also gave a GI50 (ACHN; [1]) of 1.02 µM, a CC50 (ACHN; [3]) of 38.9 µM and an IC (TGI) (ACHN; read-out: Log10 TGI) of 12.6 µM. It also gave a GI50 (RXF 393) of 14.8 µM and a GI50 (M14) of 17.4 µM.
